Data from ChEMBL document CHEMBL1201862, “PubChem BioAssay data set” (2004).
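Step 1: Grow cells in 96-well plates. Step 2: Expose to compound for 48 hours at 5 concentrations. Step 3: Interpolate endpoints linearly; if unreached, use highest concentration. Abbreviation: GI50, concentration required for 50% inhibition of growth.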 Active and inactive are the calls of the source. Cut-off read from the data, not from the text of the source: active = GI50 up to about 1.1 µM and inactive = higher.

Tests used:
Test in all cases: NCI-60 cell line screen, 48 h
[1] = system: A498
[2] = system: CAKI-1
[3] = system: DU-145
[4] = system: EKVX
[5] = system: HCC 2998
[6] = system: HCT-116
[7] = system: IGROV-1
[8] = system: KM12
[9] = system: LOX IMVI
[10] = system: MCF7
[11] = system: MDA-MB-435
[12] = system: NCI-H522
[13] = system: RPMI-8226
[14] = system: SK-MEL-2
[15] = system: SN12C
[16] = system: SNB-19
[17] = system: SW-620
[18] = system: U-251

Measured: GI50

CC(C)[Si]1(C(C)C)OCC2OC(n3cnc4c(N)ncnc43)C(N)C2O[Si](C(C)C)(C(C)C)O1 (centres undefined)
inactive: [1] 13.9 µM | [2] 11 µM | [3] 11.9 µM | [4] 17.7 µM | [5] 4.79 µM | [6] 4.14 µM | [7] 7.33 µM | [8] 4.1 µM | [9] 5.75 µM | [10] 2.55 µM | [11] 6.75 µM | [12] 8.04 µM | [13] 2.22 µM | [14] 6.22 µM | [15] 10.1 µM | [16] 4.88 µM | [17] 6.41 µM | [18] 8.32 µM

CSc1ccc(/C=C/c2ccnc3ccccc23)cc1
inactive: [1] 15.5 µM | [3] 13.9 µM | [4] 10.4 µM | [5] 13.9 µM | [6] 10.5 µM | [7] 16.4 µM | [8] 20.3 µM | [9] 12.7 µM | [10] 13.6 µM | [11] 3.69 µM | [12] 12.5 µM | [13] 8.43 µM | [14] 16.1 µM | [15] 15.5 µM | [16] 17.7 µM | [17] 14 µM | [18] 12.8 µM

C[C@]12CC(c3ccccc3O1)C(C(=O)Nc1nc(C34CC5CC(CC(C5)C3)C4)cs1)C(=O)N2 (some centres undefined)
inactive: [1] > 100 µM | [2] > 100 µM | [3] > 100 µM | [4] > 100 µM | [5] > 100 µM | [6] 98.9 µM | [7] 75 µM | [8] > 100 µM | [9] > 100 µM | [10] > 100 µM | [11] > 100 µM | [13] > 100 µM | [14] > 100 µM | [15] > 100 µM | [16] > 100 µM | [17] > 100 µM | [18] > 100 µM

O=c1ccn(-c2ccccn2)c(=O)n1-c1ccccn1
inactive: [1] > 100 µM | [2] > 100 µM | [3] > 100 µM | [4] > 100 µM | [5] > 100 µM | [6] > 100 µM | [7] > 100 µM | [8] > 100 µM | [9] > 100 µM | [10] > 100 µM | [11] > 100 µM | [12] > 100 µM | [13] > 100 µM | [14] > 100 µM | [15] > 100 µM | [16] > 100 µM | [17] > 100 µM | [18] > 100 µM

O=C(O)CCc1ccc2c(c1)C(=O)CC2
inactive: [1] > 100 µM | [3] > 100 µM | [4] > 100 µM | [5] > 100 µM | [6] > 100 µM | [7] > 100 µM | [8] > 100 µM | [9] > 100 µM | [10] > 100 µM | [11] > 100 µM | [12] > 100 µM | [13] > 100 µM | [14] > 100 µM | [15] > 100 µM | [16] > 100 µM | [17] > 100 µM | [18] > 100 µM

C#CCn1ncc2c(SC)ncnc21
inactive: [1] > 100 µM | [2] > 100 µM | [3] > 100 µM | [4] 66.4 µM | [5] > 100 µM | [6] > 100 µM | [7] > 100 µM | [8] > 100 µM | [9] > 100 µM | [10] > 100 µM | [11] > 100 µM | [12] > 100 µM | [13] > 100 µM | [14] > 100 µM | [15] > 100 µM | [16] > 100 µM | [17] > 100 µM | [18] > 100 µM

COC(=O)c1ccc(C(=O)NC(Cc2ccc(Oc3cc(CC(NC(=O)c4ccccc4C(=O)OC)C(=O)OC)ccc3OC)cc2)C(=O)OC)cc1 (centres undefined)
inactive: [1] 72.6 µM | [2] > 100 µM | [3] > 100 µM | [4] > 100 µM | [5] > 100 µM | [6] > 100 µM | [7] > 100 µM | [8] > 100 µM | [9] > 100 µM | [10] 67.5 µM | [11] > 100 µM | [13] > 100 µM | [14] 77.8 µM | [15] > 100 µM | [16] 31.6 µM | [17] > 100 µM

O=S(=O)(c1ccccc1)c1cccc2c1NCCC2
inactive: [1] > 100 µM | [2] 27.9 µM | [3] 59.4 µM | [4] 58.3 µM | [5] 13.5 µM | [6] 42.5 µM | [7] 52.5 µM | [8] 44.2 µM | [9] 35.6 µM | [10] 40.8 µM | [11] 35.2 µM | [13] 56.1 µM | [14] > 10 µM | [15] 42.7 µM | [16] 39.2 µM | [17] 40.7 µM

CC1(C)CC(=O)c2c(-c3ccc(Cl)cc3)c(C#N)c(=S)n(C3OC(CO)C(O)C(O)C3O)c2C1 (centres undefined)
inactive: [1] 34 µM | [2] 78.7 µM | [3] 49.8 µM | [5] 36.7 µM | [6] 16 µM | [7] 56.8 µM | [8] 37.3 µM | [9] 20.1 µM | [10] 33.7 µM | [11] 27.9 µM | [12] 35 µM | [13] 22.5 µM | [14] 19 µM | [15] 31.7 µM | [16] 40.3 µM | [17] 36.6 µM | [18] 21.7 µM

Cc1ccc(S(=O)(=O)OC2C3OC(C)(C)OC3OC2C(c2cc(O)c3c(c2O)C(=O)c2ccccc2C3=O)c2cc(O)c3c(c2O)C(=O)c2ccccc2C3=O)cc1 (centres undefined)
inactive: [1] > 10 µM | [2] > 10 µM | [3] > 10 µM | [4] > 10 µM | [5] > 10 µM | [6] > 10 µM | [7] > 10 µM | [8] > 10 µM | [9] > 10 µM | [10] > 10 µM | [11] > 10 µM | [12] > 10 µM | [13] > 10 µM | [14] > 10 µM | [15] > 10 µM | [16] > 10 µM | [17] > 10 µM | [18] > 10 µM

Cc1c(C(C)C)cc(OCCO)cc1C(C)C
inactive: [1] 31.3 µM | [2] 70.6 µM | [3] 73.6 µM | [4] 31 µM | [5] 55.6 µM | [6] 31.3 µM | [7] 58.3 µM | [8] 43.2 µM | [9] 24.9 µM | [10] 33 µM | [11] 31.5 µM | [12] 25.9 µM | [13] 25.2 µM | [14] 23.9 µM | [15] 30.2 µM | [16] 66.2 µM | [17] 71.9 µM | [18] 40.6 µM

O=c1cc(-c2ccccc2)oc2c(-c3cc(Cl)cc4c(=O)cc(-c5ccccc5)oc34)cc(Cl)cc12
inactive: [1] 16.1 µM | [3] 36.3 µM | [4] 22.2 µM | [5] 47.9 µM | [7] 22.5 µM | [8] 20 µM | [9] 11.3 µM | [10] 24.5 µM | [11] 26.5 µM | [12] 14.1 µM | [13] 25.2 µM | [14] 35.7 µM | [15] 32.8 µM | [16] 29.4 µM | [17] 19.9 µM | [18] 19 µM

c1csc(-c2ccc(-c3cccc4nsnc34)s2)c1
inactive: [1] > 100 µM | [2] 35.8 µM | [3] > 100 µM | [4] > 100 µM | [5] > 100 µM | [6] 94.8 µM | [8] > 100 µM | [9] > 100 µM | [10] 14.7 µM | [11] > 100 µM | [12] 71.6 µM | [13] 85.3 µM | [14] > 100 µM | [15] > 100 µM | [16] > 100 µM | [17] > 100 µM | [18] 91.2 µM

O=c1[nH]n(CCc2ccccc2CCl)c2ccc([N+](=O)[O-])cc12
inactive: [1] 91 µM | [2] 91 µM | [3] 77.3 µM | [4] 3.65 µM | [5] > 100 µM | [6] 52.1 µM | [7] 83.9 µM | [8] 83.8 µM | [9] 41.5 µM | [10] 48.5 µM | [11] 63.5 µM | [12] 52.6 µM | [13] > 100 µM | [14] > 100 µM | [15] > 100 µM | [16] > 100 µM | [17] > 100 µM | [18] 81.8 µM

O=c1[nH]nc(Cc2ccccc2)n1/N=C/c1ccco1
inactive: [1] 45.9 µM | [2] > 100 µM | [3] > 100 µM | [4] > 100 µM | [5] > 100 µM | [6] > 100 µM | [8] 77.1 µM | [9] > 100 µM | [10] 48.1 µM | [11] > 100 µM | [13] > 100 µM | [14] > 100 µM | [15] > 100 µM | [16] > 100 µM | [17] > 100 µM | [18] > 100 µM

N=C(N)Nc1ccc(CC(N)C(=O)O)cc1 (centres undefined)
inactive: [1] > 12.5 µM | [2] > 12.5 µM | [3] > 12.5 µM | [4] > 12.5 µM | [5] > 12.5 µM | [6] > 12.5 µM | [7] > 12.5 µM | [8] > 12.5 µM | [9] > 12.5 µM | [10] > 12.5 µM | [11] > 12.5 µM | [12] > 12.5 µM | [13] > 12.5 µM | [14] > 12.5 µM | [15] > 12.5 µM | [17] > 12.5 µM | [18] > 12.5 µM
